Source: patent US10246712B2, “Genetic or pharmacological reduction of PERK enhances cortical- and hippocampus-dependent cognitive function” (Carmel-Haifa University Economic Corp. Ltd, priority 2015, dated 2019)

How the values were obtained:
p-eIF2α = assay: Immunoblot of p-eIF2α levels in rat insular cortex (IC); format: in vivo; conditions: 1 μl, 100 nM stereotactic injection to the IC, compared to vehicle; n=15; data not shown
Protocol: For virus infusions, rats were first anesthetized with Ketamine (120 mg/kg) and Xylazine (6 mg/kg) and placed into a stereotactic frame (Steolting Europe, Dublin—Ireland) (Using a 32-gauge stainless steel injector attached to a stereotactic infusion pump, rats received 1 μl of lentivirus encoding PERK shRNA or lentivirus harboring a scrambled sequence over 10 min into the insular cortex (anteroposterior, +1.2 mm relative to bregma; lateral, ±5.5 mm; ventral, −6.0 mm) according to the atlas of Paxinos, G. & Watson, C. (2006). The injector was lets in place for 5 min before and after infusion to minimize fluid retraction. The rats were allowed at least 7 days to recover from the surgery before any behavior experiments were conducted.
The rats were cannulated as described in Barki-Harrington et al. (2009). Briefly, the rats were anesthetized by administration of equithesin (0.3 ml/100 g), comprising 2.12% (w/v) MgSO4, 10% (v/v) ethanol, 39.1% (v/v) propyleneglycol, 0.98% (w/v) sodium pentobarbital, and 4.2% (w/v) chloral hydrate. […]
At the end of the behavioral procedure, the brains were removed, and snap-frozen in liquid nitrogen. […] Protein content was determined with the BCA Protein Assay Kit (GE Healthcare). […]

PERK [1] = molecular target: T1, PERK (Mus musculus, UniProt Q9Z2B5); format: in vivo
T1 construct: from tissue; host or cells: CA1 region of the hippocampus of C57BL/6 mice, in vivo
T1 sequence (Q9Z2B5 29-1114): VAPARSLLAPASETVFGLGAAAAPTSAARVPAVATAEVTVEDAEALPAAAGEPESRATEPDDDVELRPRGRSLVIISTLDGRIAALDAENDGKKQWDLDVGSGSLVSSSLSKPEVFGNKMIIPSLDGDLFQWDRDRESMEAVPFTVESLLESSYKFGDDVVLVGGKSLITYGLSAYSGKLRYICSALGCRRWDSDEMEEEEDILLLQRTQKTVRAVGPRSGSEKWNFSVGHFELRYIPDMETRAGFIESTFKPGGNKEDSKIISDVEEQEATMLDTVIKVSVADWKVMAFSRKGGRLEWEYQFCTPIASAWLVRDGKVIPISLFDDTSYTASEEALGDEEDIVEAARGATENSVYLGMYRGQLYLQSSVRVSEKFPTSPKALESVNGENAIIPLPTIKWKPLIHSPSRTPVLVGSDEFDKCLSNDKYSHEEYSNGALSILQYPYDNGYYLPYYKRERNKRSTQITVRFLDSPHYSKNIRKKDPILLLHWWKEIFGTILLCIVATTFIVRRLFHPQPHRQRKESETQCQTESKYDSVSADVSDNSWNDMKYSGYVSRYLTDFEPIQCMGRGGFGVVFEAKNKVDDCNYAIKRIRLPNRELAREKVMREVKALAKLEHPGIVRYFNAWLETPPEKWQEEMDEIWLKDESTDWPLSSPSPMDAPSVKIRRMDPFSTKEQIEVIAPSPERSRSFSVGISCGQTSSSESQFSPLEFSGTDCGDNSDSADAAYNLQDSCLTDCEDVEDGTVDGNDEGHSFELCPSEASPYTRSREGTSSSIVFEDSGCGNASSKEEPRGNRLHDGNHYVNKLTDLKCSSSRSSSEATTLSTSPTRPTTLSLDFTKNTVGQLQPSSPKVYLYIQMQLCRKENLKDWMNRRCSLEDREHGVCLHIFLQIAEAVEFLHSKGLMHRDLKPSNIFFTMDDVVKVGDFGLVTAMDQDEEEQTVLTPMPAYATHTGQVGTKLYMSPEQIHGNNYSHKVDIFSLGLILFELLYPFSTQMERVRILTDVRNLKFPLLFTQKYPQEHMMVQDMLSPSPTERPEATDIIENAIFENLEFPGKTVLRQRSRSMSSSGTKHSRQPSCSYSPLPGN
Excerpt: Animals were anesthetized under 2% isoflurane using an isoflurane table top unit (HME109, Highland Medical Equipment). Under aseptic conditions, a rodent stereotaxic apparatus (Kopf Stereotaxic Alignment System Model 1900) with continuous 1% isoflurane anesthesia was used. For CA1 infusion cannula was implanted bilaterally into the CA1 region (from the bregma: −1.94 mm AP, ±1.0 mm ML, −1.0 mm DV). The implanted cannula was cemented on the skull. Each cannula was fitted with a 28 gauge dummy cannula that extended 0.1 mm beyond the tip of the guide cannula to prevent blockage of the guide cannula. After cannulation, mice were allowed to recover for 7 days before infusion of PERK inhibitor or vehicle and behavior. On conditioning day, randomly assigned mice were infused with 100 nM PERK inhibitor GSK2606414 (Axten et al., 2012) dissolved in dimethyl sulfoxide (DMSO) and further diluted in saline to a final DMSO concentration of 0.5%, via a 28-gauge infusion cannula connected by polyethylene (PE 20) tubing to a 10 μL Hamilton microsyringe (Hamilton Company). The infusion cannula protruded 0.25 mm beyond the guide cannula. For CA1 administration, infusion volume of 1 μl of 100 nM GSK2606414 or vehicle was delivered using a Harvard PHD2000 syringe pump (Harvard Apparatus) over the course of 1 min (at a rate of 1 μL/min). After infusion, the injection cannula was kept in the guide cannula for an additional minute to minimize dragging of infused solutes along the injection tract. Locations of cannula were verified in 30 μm coronal sections.
Model chambers measuring 25×25×25 cm internally (Panlab, Harvard Apparatus) were located inside a larger, insulated plastic cabinet that excluded external light and noise. For the trace fear conditioning protocol, mice were placed in a chamber (with light [20 W bulb] and a 16 bar metal grid floor) for 120 s, after which the mice received a 2.9 kHz tone, applied for 20 s at 80 dB (conditioned stimulus) and a 0.5 mA footshock applied for 2 s (unconditioned stimulus) 20 s following the end of the conditioned stimulus. This protocol was repeated 5 times, where each tone-shock presentation was separated by a 2-minute interval. After administration of the last shock, animals remained in the chamber for 2 minutes before they were taken back to the home cage. The chambers were cleaned with 10% ethanol between successive sets of mice. Animals from control and treatment groups were randomized between the 4 different chambers.

PERK [2] = format: in vivo, mouse; conditions: CA1 punches after 100 nM infusion into CA1; vs vehicle
Excerpt: Animals were anesthetized under 2% isoflurane using an isoflurane table top unit (HME109, Highland Medical Equipment). Under aseptic conditions, a rodent stereotaxic apparatus (Kopf Stereotaxic Alignment System Model 1900) with continuous 1% isoflurane anesthesia was used. For CA1 infusion cannula was implanted bilaterally into the CA1 region (from the bregma: −1.94 mm AP, ±1.0 mm ML, −1.0 mm DV). The implanted cannula was cemented on the skull. Each cannula was fitted with a 28 gauge dummy cannula that extended 0.1 mm beyond the tip of the guide cannula to prevent blockage of the guide cannula. After cannulation, mice were allowed to recover for 7 days before infusion of PERK inhibitor or vehicle and behavior. On conditioning day, randomly assigned mice were infused with 100 nM PERK inhibitor GSK2606414 (Axten et al., 2012) dissolved in dimethyl sulfoxide (DMSO) and further diluted in saline to a final DMSO concentration of 0.5%, via a 28-gauge infusion cannula connected by polyethylene (PE 20) tubing to a 10 μL Hamilton microsyringe (Hamilton Company). The infusion cannula protruded 0.25 mm beyond the guide cannula. For CA1 administration, infusion volume of 1 μl of 100 nM GSK2606414 or vehicle was delivered using a Harvard PHD2000 syringe pump (Harvard Apparatus) over the course of 1 min (at a rate of 1 μL/min). […]

[3] = 100 nM bilateral infusion to CA1 50 min prior to acquisition, 48 h after conditioning, vs vehicle

Question: Which results are given for `Cn1cc(-c2ccc3c(c2)CCN3C(=O)Cc2cccc(C(F)(F)F)c2)c2c(N)ncnc21` [GSK2606414, 7-methyl-5-(1-{[3-(trifluoromethyl)phenyl]acetyl}-2,3-dihydro-1H-indol-5-yl)-7H-pyrrolo[2,3-d]pyrimidin-4-amine]?
Answer: reduction in p-eIF2α levels (p-eIF2α): 40%; freezing during tone presentation (tone memory) (PERK [1]; [3]): enhanced freezing; freezing in the trace interval following the tone (trace memory) (PERK [1]; [3]): enhanced freezing; context memory (freezing) (PERK [1]; 100 nM bilateral infusion to CA1, 24 h after conditioning, vs vehicle): not altered; extinction (cue and trace) (PERK [1]; 100 nM infusion to CA1 at the time of conditioning): no effect; total PERK levels (PERK [2]): no effect
